Laboratory results taken from patent US9340493B2, “Hydroxamic acid derivatives useful as antibacterial agents” (Pfizer Inc., priority 2008, dated 2016).
Values after ≈ are worked out from the molar mass of the structure shown.

Assays:
[1] = target: T1, Pseudomonas aeruginosa LpxC enzyme (Pseudomonas aeruginosa, UniProt P47205); test: IC50 assay, LpxC enzyme from P. aeruginosa; format: biochemical; details: 0.5 nM enzyme, 25° C., pH 8.0, 20 min; ** = average of 2-8 assays
T1 construct: made in house; host or cells: E. coli
T1 sequence (P47205 1-303): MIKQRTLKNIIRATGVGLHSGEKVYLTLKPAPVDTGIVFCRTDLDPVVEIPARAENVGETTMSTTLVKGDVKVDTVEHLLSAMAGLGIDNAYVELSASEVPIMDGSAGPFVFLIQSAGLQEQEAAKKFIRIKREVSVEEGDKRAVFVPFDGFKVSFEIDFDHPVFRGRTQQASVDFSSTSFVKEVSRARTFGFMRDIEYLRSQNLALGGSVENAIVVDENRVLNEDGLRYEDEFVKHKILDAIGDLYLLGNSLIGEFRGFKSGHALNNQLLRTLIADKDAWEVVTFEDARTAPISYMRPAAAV
Description: IC50 assay, LpxC enzyme from P. aeruginosa: IC50 determination in the LpxC enzyme assay was carried out in a similar manner to that described by S. A. Hyland et al., J. Bacteriology 1997, 179, 2029-2037. [See also T. Kline et al., J. Medicinal Chemistry 2002, 45, 3112-3129.] Briefly, Pseudomonas aeruginosa LpxC enzyme (0.5 nM) purified from E. coli-overexpressing bacteria was incubated at 25° C. in a final volume of 25 ul containing 0.5 uM UDP-3-O—(R-3-hydroxydecanoyl)-N—[^3H-acetyl]glucosamine (B. D. Maxwell and J. C. Bronstein, J. Labeled Compounds and Radiopharmaceuticals 2005, 48, 1049-1054), 1 mg/ml BSA, and 50 mM sodium phosphate buffer, pH 8.0 in the presence and absence of inhibitor compound. At the end of 20 min, 90 ul of a pre-mixed 3% suspension of activated charcoal in 100 mM sodium acetate, pH 7.5, was added to stop the enzyme reaction. The contents of the well were transferred to a filter plate and filtered, and an aliquot of the filtrate was quantitated by liquid scintillation spectrometry. A no-enzyme control was subtracted in order to eliminate background counts.

[2] = tested on: Klebsiella pneumoniae; test: MIC determination, K. pneumoniae; format: cell-based; details: ciprofloxacin-resistant, ESBL-expressing clinical isolate, * = arithmetic mean of 2-6 MIC determinations, read-out: MIC (ug/mL) K. pneumoniae
Description: (§1) MIC determinations: The in vitro antibacterial activity of compounds described in the Examples was evaluated by minimum inhibitory concentration (MIC) testing according to Clinical and Laboratory Standards Institute (CLSI, formerly NCCLS) guidelines. See: Clinical and Laboratory Standards Institute. Methods for Dilution Antimicrobial Susceptibility Tests for Bacteria that Grow Aerobically; Approved Standard-Seventh Edition. CLSI document M7-A7 [ISBN 1-56238-587-9]. Clinical and Laboratory Standards Institute, 940 West Valley Road, Suite 1400, Wayne, Pa. 19087-1898 USA, 2006; also Clinical and Laboratory Standards Institute. Performance Standards for Antimicrobial Susceptibility Testing; Eighteenth Informational Supplement. CLSI document M100-S18 [ISBN1-56238-653-0]. Clinical and Laboratory Standards Institute.
(§2) The following bacterial strains were used:
Klebsiella pneumoniae: Ciprofloxacin-resistant isolate, expresses extended-spectrum beta-lactamases (ESBL), clinical isolate;

[3] = tested on: P. aeruginosa PAO280; test: MIC determination, P. aeruginosa PAO280; format: cell-based; details: Pseudomonas aeruginosa, PAO280, read-out: MIC (ug/mL) P. aeruginosa PAO280
Description: as §1, §2
Pseudomonas aeruginosa PA0280: lacks efflux pumps MexAB-oprM, MexXY and MexZ

[4] = tested on: P. aeruginosa UI-18; test: MIC determination, P. aeruginosa UI-18; format: cell-based; details: Pseudomonas aeruginosa, UI18; wild-type; * = arithmetic mean of 2-6 MIC determinations; read-out: MIC (ug/mL) P. aeruginosa UI-18
Description: as §1, §2
P. aeruginosa UI-18: Wild-type;

[5] = tested on: Acinetobacter baumanii/haemolyticus; test: MIC determination, A. baumanii/haemolyticus; format: cell-based; details: Acinetobacter baumannii; multidrug-resistant clinical isolate; * = arithmetic mean of 2-6 MIC determinations; read-out: MIC (ug/mL) A. baumanii/haemolyticus
Description: as §1, §2
Acinetobacter baumanii/haemolyticus: Multidrug-resistant clinical isolate;

[6] = tested on: Escherichia coli EC-1; test: MIC determination, E. coli EC-1; format: cell-based; details: EC1, EC-1: VOGEL, * = arithmetic mean of 2-6 MIC determinations, read-out: MIC (ug/mL) E. coli EC-1
Description: as §1, §2
Escherichia coli EC-1: VOGEL;

[7] = tested on: Enterobacter aerogenes; test: MIC determination, E. aerogenes; format: cell-based; details: Klebsiella aerogenes; quinolone-resistant, ESBL-expressing clinical isolate; * = arithmetic mean of 2-6 MIC determinations; read-out: MIC (ug/mL) E. aerogenes
Description: as §1, §2
Enterobacter aerogenes: Quinolone-resistant isolate, expresses extended-spectrum beta-lactamases (ESBL), clinical isolate;

[8] = tested on: Staphylococcus aureus ATCC 29213; test: MIC determination, S. aureus ATCC 29213; format: cell-based; details: ATCC29213, CLSI quality control reference strain, * = arithmetic mean of 2-6 MIC determinations, read-out: MIC (ug/mL) S. aureus ATCC 29213
Description: as §1, §2
Staphylococcus aureus ATCC 29213: CLSI quality control reference strain; and […]

SMILES	IC50 [1]	MIC [2]	MIC [3]	MIC [4]	MIC [5]	MIC [6]	MIC [7]	MIC [8]
CCCc1ccc(-c2ccc(CO[C@](C)(C(=O)NO)[C@@H](O)c3cc(C)on3)cc2)cc1 [Example 30, (2S,3S)-N,3-dihydroxy-2-methyl-3-(5-methylisoxazol-3-yl)-2-[(4′-propylbiphenyl-4-yl)methoxy]propanamide]	0.000762 µM	4 µg/mL (≈ 9.42 µM)	1 µg/mL (≈ 2.36 µM)	4 µg/mL (≈ 9.42 µM)	2 µg/mL (≈ 4.71 µM)	2 µg/mL (≈ 4.71 µM)	16 µg/mL (≈ 37.7 µM)	32 µg/mL (≈ 75.4 µM)
C[C@@](OCc1ccc(-c2ccccc2)cc1)(C(=O)NO)[C@@H](O)c1ccon1 [Example 31, (2S,3S)-2-(biphenyl-4-ylmethoxy)-N,3-dihydroxy-3-isoxazol-3-yl-2-methylpropanamide]	0.000406 µM	48 µg/mL (≈ 130 µM)	0.06 µg/mL (≈ 0.163 µM)	6 µg/mL (≈ 16.3 µM)	32 µg/mL (≈ 86.9 µM)	16 µg/mL (≈ 43.4 µM)	> 64 µg/mL	> 64 µg/mL
Cc1ccc(-c2ccc(CO[C@](C)(C(=O)NO)[C@@H](O)c3cc(C)on3)cc2)nc1 [Example 32, (2S,3S)-N,3-dihydroxy-2-methyl-3-(5-methylisoxazol-3-yl)-2-{[4-(5-methylpyridin-2-yl)benzyl]oxy}propanamide]	0.000286 µM	64 µg/mL (≈ 161 µM)	0.06 µg/mL (≈ 0.151 µM)	8 µg/mL (≈ 20.1 µM)	> 64 µg/mL	32 µg/mL (≈ 80.5 µM)	> 64 µg/mL	> 64 µg/mL
C[C@@](OCc1ccc(-c2ccccc2)cc1)(C(=O)NO)[C@@H](O)c1ncco1 [Example 33, (2S,3R)-2-(biphenyl-4-ylmethoxy)-N,3-dihydroxy-2-methyl-3-(1,3-oxazol-2-yl)propanamide]	0.00323 µM	> 64 µg/mL	0.25 µg/mL (≈ 0.679 µM)	8 µg/mL (≈ 21.7 µM)	> 64 µg/mL	64 µg/mL (≈ 174 µM)	> 64 µg/mL	> 64 µg/mL
C[C@@](OCc1ccc(-c2ccccc2)cc1)(C(=O)NO)[C@@H](O)c1cc(CO)on1 [Example 34, (2S,3S)-2-(biphenyl-4-ylmethoxy)-N,3-dihydroxy-3-[5-(hydroxymethyl)isoxazol-3-yl]-2-methylpropanamide]	0.000579 µM	64 µg/mL (≈ 161 µM)	0.023 µg/mL (≈ 0.0577 µM)	1.25 µg/mL (≈ 3.14 µM)	64 µg/mL (≈ 161 µM)	28 µg/mL (≈ 70.3 µM)	> 64 µg/mL	> 64 µg/mL
C[C@@](OCc1ccc(-c2ccc(F)cc2)cc1)(C(=O)NO)[C@@H](O)c1cc(CO)on1 [Example 35, (2S,3S)-2-[(4′-fluorobiphenyl-4-yl)methoxy]-N,3-dihydroxy-3-[5-(hydroxymethyl)isoxazol-3-yl]-2-methylpropanamide]	0.000695 µM	53 µg/mL (≈ 127 µM)	0.03 µg/mL (≈ 0.072 µM)	1 µg/mL (≈ 2.4 µM)	64 µg/mL (≈ 154 µM)	23 µg/mL (≈ 55.2 µM)	> 64 µg/mL	> 64 µg/mL
CCc1ccc(-c2ccc(CO[C@](C)(C(=O)NO)[C@@H](O)c3cc(CO)on3)cc2)cc1 [Example 36, (2S,3S)-2-[(4′-ethylbiphenyl-4-yl)methoxy]-N,3-dihydroxy-4-[5-(hydroxymethyl)isoxazol-3-yl]-2-methylpropanamide]	0.000244 µM	16 µg/mL (≈ 37.5 µM)	0.03 µg/mL (≈ 0.0703 µM)	1 µg/mL (≈ 2.34 µM)	32 µg/mL (≈ 75 µM)	4 µg/mL (≈ 9.38 µM)	64 µg/mL (≈ 150 µM)	64 µg/mL (≈ 150 µM)
Cc1ccc(-c2ccc(CO[C@](C)(C(=O)NO)[C@@H](O)c3cc(CO)on3)cc2)cc1 [Example 37, (2S,3S)-N,3-dihydroxy-3-[5-(hydroxymethyl)isoxazol-3-yl]-2-methyl-2-[(4′-methylbiphenyl-4-yl)methoxy]propanamide]	0.000476 µM	16 µg/mL (≈ 38.8 µM)	0.015 µg/mL (≈ 0.0364 µM)	0.75 µg/mL (≈ 1.82 µM)	64 µg/mL (≈ 155 µM)	8 µg/mL (≈ 19.4 µM)	64 µg/mL (≈ 155 µM)	> 64 µg/mL
Cc1cc([C@H](O)[C@](C)(OCc2ccc(-c3ccc(F)cc3)cc2)C(=O)NO)no1 [Example 38, (2S,3S)-2-[(4′-fluorobiphenyl-4-yl)methoxy]-N,3-dihydroxy-2-methyl-3-(5-methylisoxazol-3-yl)propanamide]	0.000132 µM	8 µg/mL (≈ 20 µM)	0.015 µg/mL (≈ 0.0375 µM)	1 µg/mL (≈ 2.5 µM)	4 µg/mL (≈ 9.99 µM)	2 µg/mL (≈ 4.99 µM)	64 µg/mL (≈ 160 µM)	> 64 µg/mL
Cc1ccc(-c2ccc(CO[C@](C)(C(=O)NO)[C@@H](O)c3cc(C)on3)cc2)cc1 [Example 39, (2S,3S)-N,3-dihydroxy-2-methyl-2-[(4′-methylbiphenyl-4-yl)methoxy]-3-(5-methylisoxazol-3-yl)propanamide]	0.000589 µM	4 µg/mL (≈ 10.1 µM)	0.03 µg/mL (≈ 0.0757 µM)	1 µg/mL (≈ 2.52 µM)	4 µg/mL (≈ 10.1 µM)	2 µg/mL (≈ 5.04 µM)	32 µg/mL (≈ 80.7 µM)	> 64 µg/mL
Cc1ccc(-c2ccc(CO[C@](C)(C(=O)NO)[C@@H](O)c3cc(CO)on3)cc2)nc1 [Example 40, (2S,3S)-N,3-dihydroxy-3-[5-(hydroxymethyl)isoxazol-3-yl]-2-methyl-2-{[4-(5-methylpyridin-2-yl)benzyl]oxy}propanamide]	0.00081 µM	> 64 µg/mL	0.125 µg/mL (≈ 0.302 µM)	16 µg/mL (≈ 38.7 µM)	> 64 µg/mL	> 64 µg/mL	> 64 µg/mL	> 64 µg/mL
C[C@@](OCc1ccc(-c2ccc(C(F)(F)F)cn2)cc1)(C(=O)NO)[C@@H](O)c1cc(CO)on1 [Example 41, (2S,3S)-N,3-dihydroxy-3-[5-(hydroxymethyl)isoxazol-3-yl]-2-methyl-2-({4-[5-(trifluoromethyl)pyridin-2-yl]benzyl}oxy)propanamide]	0.00116 µM	> 64 µg/mL	0.25 µg/mL (≈ 0.535 µM)	32 µg/mL (≈ 68.5 µM)	> 64 µg/mL	> 64 µg/mL	> 64 µg/mL	> 64 µg/mL
C[C@@](OCc1ccc(-c2ccc(C(F)(F)F)cc2)cc1)(C(=O)NO)[C@@H](O)c1cc(CO)on1 [Example 42, (2S,3S)-N,3-dihydroxy-3-[5-(hydroxymethyl)isoxazol-3-yl]-2-methyl-2-{[4′-(trifluoromethyl)biphenyl-4-yl]methoxy}propanamide]	0.000372 µM	> 32 µg/mL	< 0.06 µg/mL	2 µg/mL (≈ 4.29 µM)	32 µg/mL (≈ 68.6 µM)	16 µg/mL (≈ 34.3 µM)	> 32 µg/mL	> 32 µg/mL
C[C@@](OCc1ccc(-c2ccccc2)cc1)(C(=O)NO)[C@@H](O)c1cc(S(C)(=O)=O)on1 [Example 43, (2S,3S)-2-(biphenyl-4-ylmethoxy)-N,3-dihydroxy-2-methyl-3-[5-(methylsulfonyl)isoxazol-3-yl]propanamide]	0.000686 µM	16 µg/mL (≈ 35.8 µM)	0.03 µg/mL (≈ 0.0672 µM)	2 µg/mL (≈ 4.48 µM)	64 µg/mL (≈ 143 µM)	4 µg/mL (≈ 8.96 µM)	64 µg/mL (≈ 143 µM)	64 µg/mL (≈ 143 µM)
